# pIC50: −log10 of the molar value.
# Molecular target: T1, Miro1 (Homo sapiens, UniProt Q8IXI2)
# T1 construct: We applied compound 3 to fibroblasts from one sporadic PD patient (PD-2); endogenous in cells; host or cells: human skin fibroblasts (PD-2, Healthy-1 and further PD/control lines)
# Assay: Miro1 response to CCCP in PD fibroblasts, Western blotting
# Type: cell-based
# Method: FIG. 2A-FIG. 2F. Miro1 Reducer Eliminates the Miro1 Defect in PD Fibroblasts. (FIG. 2A) Chemical properties of Miro1 Reducer. (FIG. 2B) Wild-type flies (w^1118) were fed with DMSO alone (0 μM Miro1 Reducer) or Miro1 Reducer in DMSO at 250 μM for 7 days, and lysed and blotted as indicated. The band intensities are normalized to those of Tubulin from the same blots. n=4. (FIG. 2C-FIG. 2E) Fibroblasts were treated, lysed, and blotted as indicated. (FIG. 2C) Band intensities are normalized to those of GAPDH from the same blots and compared to “Healthy-1, no treatment” except otherwise indicated. n=4. (FIG. 2D) Band intensities are normalized to those of ATP5β from the same blots and expressed as a percentage of the mean of “0 μM Miro1 Reducer with CCCP”. Mean±S.E.M is shown. n=3. (FIG. 2E) Band intensities are normalized to those of GAPDH from the same blots and compared to “Healthy-1, no CCCP, no MG132” except otherwise indicated. n=4. (FIG. 2F) Healthy-1 and PD-2 fibroblasts were transfected as indicated, and immunostained with anti-Myc (Miro1, green) and stained with Dapi (blue). The Miro1 intensity is normalized to that of mito-dsRed from the same cell and quantified across 37-62 cells from 5 fields each transfection, 3 independent transfections. Scale bars: 50 μm. For (FIG. 2C-FIG. 2F), both CCCP and Miro1 Reducer were dissolved in DMSO. Cells were pretreated with Miro1 Reducer 24 hrs before the application of CCCP for another 6 hrs. The same volume of DMSO was applied at the same time in negative controls.
# FIG. 3A-FIG. 3D. Miro1 Reducer Rescues Parkinson's Neurodegeneration. (FIG. 3A) Fibroblasts were treated, lysed, and blotted as indicated. Band intensities are normalized to those of ATP5β from the same blots and compared to “Healthy-2, no treatment”. n=4. (FIG. 3B-FIG. 3C) iPSC-derived neurons were treated as indicated and immunostained with anti-TH (FIG. 3B) or stained with PI and Dapi (FIG. 3C). Both Antimycin A and Miro1 Reducer were dissolved in ethanol. Neurons were pretreated with Miro1 Reducer 24 hrs before the application of Antimycin A for another 6 hrs. The same volume of ethanol was applied at the same time in negative controls. (FIG. 3B) The density of TH-positive neurons is calculated in each condition under 20×, from 10 fields each experiment, 3-4 experiments. […] (FIG. 3C) The percentage of PI-positive cells out of total cells (Dapi-positive) is calculated. n=20 fields each experiment, 4 experiments. […] Graphs of Mean±S.E.M show the percent of time each mitochondrion is in motion (red and blue, compared to “Wild-type-I, before treatment”), and the mitochondrial intensity normalized to that of the same axonal region at “0 min” and expressed as a fraction of the mean of “Wild-type-I, 0 min”. n=33-77 mitochondria from 5-8 axons from 5-8 separate transfections. […]
# T1 sequence (Q8IXI2 whole entry): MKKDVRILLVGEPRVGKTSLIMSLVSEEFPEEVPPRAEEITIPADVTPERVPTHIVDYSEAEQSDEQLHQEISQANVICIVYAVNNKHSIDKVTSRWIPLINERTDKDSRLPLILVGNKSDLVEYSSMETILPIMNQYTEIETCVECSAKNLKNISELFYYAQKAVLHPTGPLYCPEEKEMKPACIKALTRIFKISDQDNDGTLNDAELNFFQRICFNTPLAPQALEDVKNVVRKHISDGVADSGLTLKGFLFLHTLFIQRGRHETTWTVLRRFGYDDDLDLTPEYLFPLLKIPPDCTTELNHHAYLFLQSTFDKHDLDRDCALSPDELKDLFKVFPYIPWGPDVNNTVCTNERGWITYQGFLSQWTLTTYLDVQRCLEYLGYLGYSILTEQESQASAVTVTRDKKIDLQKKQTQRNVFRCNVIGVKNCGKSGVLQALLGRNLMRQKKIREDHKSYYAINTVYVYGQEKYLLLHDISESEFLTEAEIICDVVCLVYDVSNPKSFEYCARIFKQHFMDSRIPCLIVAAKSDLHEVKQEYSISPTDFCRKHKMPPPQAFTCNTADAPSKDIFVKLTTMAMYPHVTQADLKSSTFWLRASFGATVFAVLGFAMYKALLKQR
compound,measurement,setting,value
O=C(Nc1ccc(Nc2cc(-n3ccnc3)ncn2)cc1)Nc1cccc(F)c1 [Miro1 Reducer],Miro1 degradation following CCCP treatment,"PD-2 fibroblasts, 10 μM for 30 hrs, CCCP 6 hrs",robustly promoted Miro1 degradation
same,reduction of Miro1 protein in presence of proteasome inhibitor MG132,"PD-2 fibroblasts, following CCCP treatment",blocked by the proteasome inhibitor MG132
same,Miro1 degradation after depolarization in additional lines,additional 4 control and 4 sporadic PD fibroblast cell lines,same beneficial change of Miro1 degradation after depolarization
same,pIC50,"fibroblasts pretreated 24 hrs, then CCCP 6 hrs, FIG. 2D, read-out: Miro1 protein levels, dose-dependent response (IC50)",5.11

# — US12544375B2, “Small molecule therapeutic for parkinson's disease paired with a biomarker of therapeutic activity” (The Board of Trustees of the Leland Stanford Junior …, priority 2019, dated 2026)
